Measurements as given in patent US8748417B2, “Amino-pyrrolidine-azetidine diamides as monoacylglycerol lipase inhibitors” (Janssen Pharmaceutica, NV, priority 2010, dated 2014).

Biological target: T1, purified wild type MGL (wt-MGLL 6H-11-313) (Homo sapiens, UniProt Q99685)
T1 construct: purified wild type MGL (wt-MGLL 6H-11-313)
T1 sequence (Q99685 1-303): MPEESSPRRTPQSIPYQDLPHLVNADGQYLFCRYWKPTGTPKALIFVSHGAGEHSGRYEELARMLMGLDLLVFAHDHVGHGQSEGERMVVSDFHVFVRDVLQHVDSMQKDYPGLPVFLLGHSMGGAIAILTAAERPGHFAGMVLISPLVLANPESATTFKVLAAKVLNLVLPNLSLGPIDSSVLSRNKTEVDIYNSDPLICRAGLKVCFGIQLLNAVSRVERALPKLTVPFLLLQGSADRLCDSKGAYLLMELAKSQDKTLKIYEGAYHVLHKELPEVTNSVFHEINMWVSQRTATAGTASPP
Experiment: MGL enzyme activity assay (4MU-B cleavage), wild type MGL
Assay type: biochemical
Settings: wild type MGL 5 nM, 4MU-B 10 μM, 37° C.; read-out: MGL wild type inh IC50
Procedure: All rate-based assays were performed in black 384-well polypropylene PCR microplates (Abgene) in a total volume of 30 μL. Substrate 4-methylumbelliferyl butyrate (4MU-B; Sigma) and either purified mutant MGL (mut-MGLL 11-313 L179S L186S) or purified wild type MGL (wt-MGLL 6H-11-313) were diluted separately into 20 mM PIPES buffer (pH=7.0), containing 150 mM NaCl and 0.001% Tween 20. Compounds of Formula (I) were pre-dispensed (50 nL) into the assay plate using a Cartesian Hummingbird prior to adding 4MU-B (25 μL of 1.2× solution to a final concentration of 10 μM) followed by enzyme (5 μL of a 6× solution to a final concentration of 5 nM) to initiate the reaction. Final compound concentrations ranged from 17 to 0.0003 μM. The fluorescence change due to 4MU-B cleavage was monitored with excitation and emission wavelengths of 335 and 440 nm, respectively, and a bandwidth of 10 nm (Safire^2, Tecan) at 37° C. for 5 min.
The IC50 values for the following compounds were determined using Microsoft Office Excel from a fit of the equation to the concentration-response plot of the fractional activity as a function of inhibitor concentration.

O=C(c1cscn1)N1CC[C@H](NC2CN(C(=O)c3cc4ccc(Br)cc4s3)C2)C1 [Cpd 96, (3S)-N-{1-[(6-Bromo-1-benzothiophen-2-yl)carbonyl]azetidin-3-yl}-1-(1,3-thiazol-4-ylcarbonyl)pyrrolidin-3-amine]
IC50: 1050 nM

O=C(c1ccc2c(-c3ccc(F)cc3)c[nH]c2c1)N1CC(N[C@H]2CCN(C(=O)c3cscn3)C2)C1 [Cpd 190, (3S)-N-(1-{[3-(4-Fluorophenyl)-1H-indol-6-yl]carbonyl}azetidin-3-yl)-1-(1,3-thiazol-4-ylcarbonyl)pyrrolidin-3-amine]
IC50: 114 nM

O=C(c1ccc2c(ccn2-c2ncccn2)c1)N1CC(N[C@H]2CCN(C(=O)c3ccccc3)C2)C1 [Cpd 155, (3S)-1-(Phenylcarbonyl)-N-{1-[(1-pyrimidin-2-yl-1H-indol-5-yl)carbonyl]azetidin-3-yl}pyrrolidin-3-amine]
IC50: 1280 nM

O=C(c1ccccc1)N1CC[C@H](NC2CN(C(=O)c3sc4cc(C(F)(F)F)ccc4c3F)C2)C1 [Cpd 89, (3S)-N-(1-{[3-Fluoro-6-(trifluoromethyl)-1-benzothiophen-2-yl]carbonyl}azetidin-3-yl)-1-(phenylcarbonyl)pyrrolidin-3-amine]
IC50: 154 nM

Cc1c(C(=O)N2CC(N[C@H]3CCN(C(=O)c4cscn4)C3)C2)sc2cc(F)ccc12 [Cpd 88, (3S)-N-{1-[(6-Fluoro-3-methyl-1-benzothiophen-2-yl)carbonyl]azetidin-3-yl}-1-(1,3-thiazol-4-ylcarbonyl)pyrrolidin-3-amine]
IC50: 152 nM

O=C(c1ccccc1)N1CC[C@H](NC2CN(C(=O)c3sc4cc(C(F)(F)F)ccc4c3-c3ccccc3)C2)C1 [Cpd 74, (3S)-1-(Phenylcarbonyl)-N-(1-{[3-phenyl-6-(trifluoromethyl)-1-benzothiophen-2-yl]carbonyl}azetidin-3-yl)pyrrolidin-3-amine]
IC50: 277 nM

O=C(c1ccccc1)N1CC[C@H](NC2CN(C(=O)c3cc4cc(Br)ccc4o3)C2)C1 [Cpd 107, (3S)-N-{1-[(5-Bromo-1-benzofuran-2-yl)carbonyl]azetidin-3-yl}-1-(phenylcarbonyl)pyrrolidin-3-amine]
IC50: > 16700 nM

Cn1nc(-c2ccc(F)cc2)c2cc(C(=O)N3CC(N[C@H]4CCN(C(=O)c5cscn5)C4)C3)ccc21 [Cpd 210, (3S)-N-(1-{[3-(4-Fluorophenyl)-1-methyl-1H-indazol-5-yl]carbonyl}azetidin-3-yl)-1-(1,3-thiazol-4-ylcarbonyl)pyrrolidin-3-amine]
IC50: 2040 nM

O=C(c1cc2ccc(Br)cc2s1)N1CC(N[C@H]2CCN(C(=O)c3nccs3)C2)C1 [Cpd 95, (3S)-N-{1-[(6-Bromo-1-benzothiophen-2-yl)carbonyl]azetidin-3-yl}-1-(1,3-thiazol-2-ylcarbonyl)pyrrolidin-3-amine]
IC50: 410 nM

O=C(c1ccc2c(-c3ccccc3)ncnc2c1)N1CC(N[C@H]2CCN(C(=O)c3ccccc3)C2)C1 [Cpd 108, (3S)-1-(Phenylcarbonyl)-N-{1-[(4-phenylquinazolin-7-yl)carbonyl]azetidin-3-yl}pyrrolidin-3-amine]
IC50: 1030 nM

Cc1nc(-c2ccc(Cl)cc2)sc1C(=O)N1CC(N[C@H]2CCN(C(=O)c3nccs3)C2)C1 [Cpd 137, (3S)-N-(1-{[2-(4-Chlorophenyl)-4-methyl-1,3-thiazol-5-yl]carbonyl}azetidin-3-yl)-1-(1,3-thiazol-2-ylcarbonyl)pyrrolidin-3-amine]
IC50: 446 nM

Cc1c(C(=O)N2CC(N[C@H]3CCN(C(=O)c4ccccc4)C3)C2)sc2cc(F)ccc12 [Cpd 86, (3S)-N-{1-[(6-Fluoro-3-methyl-1-benzothiophen-2-yl)carbonyl]azetidin-3-yl}-1-(phenylcarbonyl)pyrrolidin-3-amine]
IC50: 298 nM

Cc1nc(-c2ccccc2F)sc1C(=O)N1CC(N[C@H]2CCN(C(=O)c3nccs3)C2)C1 [Cpd 134, (3S)-N-(1-{[2-(2-Fluorophenyl)-4-methyl-1,3-thiazol-5-yl]carbonyl}azetidin-3-yl)-1-(1,3-thiazol-2-ylcarbonyl)pyrrolidin-3-amine]
IC50: 2930 nM
